The text below walks through data of publication PMC5974420, “Isospecific adenine DNA methyltransferases show distinct preferences towards DNA substrates” (Scientific Reports, 2018).

The target in one data set is T1, M.LlaCI (Lactococcus lactis, UniProt O86267).
T1 construct: gene mllaci
The data set can be described thus: radiometric [3H]methyl transfer to DNA. The class given is biochemical. The note with it: 0.2 µM [methyl-3H]SAM, 0.15 µM ds oligo (AAGCTT site), 10 mM Tris-HCl pH 7.0, 37 °C, 1 h; labelled compound.

A further data set has as its target T2, M.HindIII (Haemophilus influenzae, UniProt P43871).
T2 construct: gene hindIIIM
The note with it: 0.2 µM [methyl-3H]SAM, 0.15 µM ds oligo (AAGCTT site), 10 mM Tris-HCl pH 7.0, 37 °C, 1 h; labelled compound.

Substrate in the data set “purified protein”: C[S+](CC[C@H](N)C(=O)O)C[C@H]1O[C@@H](n2cnc3c(N)ncnc32)[C@H](O)[C@@H]1O
The data set can be described thus: purified protein. The note with it: 10 µM unmethylated ds oligo AAGCTT1/AAGCTT2 (AAGCTT site), 10 mM Tris-HCl pH 7.0, 37 °C, 5 min, 135 nM enzyme, labelled compound.

T1 sequence (O86267 1-296): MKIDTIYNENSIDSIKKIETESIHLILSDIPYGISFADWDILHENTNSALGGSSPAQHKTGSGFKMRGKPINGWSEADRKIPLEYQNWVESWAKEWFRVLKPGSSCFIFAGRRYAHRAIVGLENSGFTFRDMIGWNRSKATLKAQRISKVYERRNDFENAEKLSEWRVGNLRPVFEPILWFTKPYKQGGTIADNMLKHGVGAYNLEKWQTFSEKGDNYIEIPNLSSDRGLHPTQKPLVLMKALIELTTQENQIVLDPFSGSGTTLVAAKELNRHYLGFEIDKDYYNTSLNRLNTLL
T2 sequence (P43871 whole entry): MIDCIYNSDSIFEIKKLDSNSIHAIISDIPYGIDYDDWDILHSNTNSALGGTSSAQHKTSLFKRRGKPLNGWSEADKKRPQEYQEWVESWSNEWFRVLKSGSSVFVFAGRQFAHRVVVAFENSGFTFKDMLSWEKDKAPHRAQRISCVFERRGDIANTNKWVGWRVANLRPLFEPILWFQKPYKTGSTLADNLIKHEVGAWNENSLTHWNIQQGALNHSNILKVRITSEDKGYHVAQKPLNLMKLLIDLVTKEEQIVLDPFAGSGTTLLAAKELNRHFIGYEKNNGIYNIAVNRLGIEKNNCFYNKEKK

With `C[S+](CC[C@H](N)C(=O)O)C[C@H]1O[C@@H](n2cnc3c(N)ncnc32)[C@H](O)[C@@H]1O` (stereo partly drawn) [AdoMet], the “radiometric [3H]methyl transfer to DNA” value at M.LlaCI and at M.HindIII was “monitoring transfer of the radioactively labelled methyl groups from [^3H]AdoMet to DNA” each time.

B1: M.EcoVIII (Escherichia coli) (protein)
chain: MLNKIQLPDEIKKNTVTNGNSISLIKKLPSQYAHLILSDIPYGIGAEDWDVLHNNSNNAYLGSSPAQKNAGAIFKKRGKPINGWSEADKKIPLEYQQWCEEWATEWFRVLKPGASAIIFAGRRFSHRCICAMEDAGFNLRDIIAWMRVKAPHRAQRLSCVYERRGDTLNAEKWNGWRVGNLQPTFEPILWFSKPYKIGGTIADNAIIHGVGAYNQDAFVARNGKPENVITAGFSSNESGLHPTQKPVALMKTLIELTTQKGQLVIDPFSGSGSTLVAAKDLGRDYIGFEINPTYVETSIKRLNK
In the case of B1, the Km (commonly the concentration of substrate that gives half-maximal velocity) in “purified protein” was 0.27 ± 0.006 µM.
